Experimental data published in patent US5891869A, “Basic oxazoline-amide derivatives of GE2270 and GE2270-like antibiotics” (Biosearch Italia, S.p.A., priority 1995, dated 1999).

What was measured:
Assay in all cases: MIC by microbroth dilution
Strept. sanguis L1721 = type: cell-based, Streptococcus sanguis; conditions: 0,01% BSA, 10^4 CFU/ml, 18-24 h, Todd Hewitt broth
Description: (§1) The minimal inhibitory concentration (MIC) has been determined by microbroth dilution methodology, in the presence of 0,01% (w/v) of bovine serum albumin (BSA). BSA is added to the diluent to avoid possible adherence of the compounds of the invention to the plastic surface of the microtiter wells, as disclosed also by B. Goldstein et al., Antimicrobial Agents and Chemotherapy, 37 (1993), 741-745.
(§2) Inocula were 10^4 CFU/ml, except for Propionibacterium acnes and Bacteroides fragilis (10^5 CFU/ml) MICs were read after 18-24 h, except for Haemophilus influenzae, P. acnes, B. fragilis (48 h).
(§3) All microorganisms were incubated at 37° C.; H. influenzae in a 5% CO2 atmosphere, anaerobes in a N2 --CO2 --H2 (80:10:10) mixture; other organisms in air.
(§4) The growth media are: Oxoid Iso-Sensitest broth for staphylococci and Enterococcus faecalis); Difco Todd Hewitt broth for streptococci; Difco brain heart infusion broth+1% Difco Supplement C. for H. influenzae; Difco Wilkins-Chalgren broth for anaerobes.

[1] = system: Haemoph. influenzae ATCC 19418 L970; type: cell-based, Haemophilus influenzae; conditions: 0,01% BSA, 10^4 CFU/ml, 48 h, 5% CO2, brain heart infusion broth+1% Supplement C
Description: as §1, §2, §3, §4

Strept. pneumoniae L44 = type: cell-based, Streptococcus pneumoniae; conditions: 0,01% BSA, 10^4 CFU/ml, 18-24 h, Todd Hewitt broth
Description: as §1, §2, §3, §4

[2] = system: Streptococcus pyogenes L49; type: cell-based; conditions: 0,01% BSA, 10^4 CFU/ml, 18-24 h, Todd Hewitt broth
Description: as §1, §2, §3, §4

[3] = system: Staphylococcus aureus L165; type: cell-based; conditions: 0,01% BSA, inoculum 10^4 CFU/ml, read after 18-24 h, Iso-Sensitest broth
Description: as §1, §2, §3, §4

Strept. agalactiae L310 = type: cell-based, Streptococcus agalactiae; conditions: 0,01% BSA, 10^4 CFU/ml, 18-24 h, Todd Hewitt broth
Description: as §1, §2, §3, §4

[4] = system: Bacteroides fragilis ATCC 25285 L1011; type: cell-based; conditions: 0,01% BSA, 10^5 CFU/ml, 48 h, anaerobic, Wilkins-Chalgren broth
Description: as §1, §2, §3, §4

Row | Compound | MIC of the compounds (Strept. sanguis L1721) | MIC of the compounds [1] | MIC of the compounds (Strept. pneumoniae L44) | MIC of the compounds [2] | MIC of the compounds [3] | MIC of the compounds (Strept. agalactiae L310) | MIC of the compounds [4]
1 | CCN1CCCC1CNC(=O)C1COC(c2csc(-c3ccc4c(n3)-c3csc(n3)-c3csc(n3)C(C(O)c3ccccc3)NC(=O)CNC(=O)c3nc(sc3COC)C(C(C)C)NC(=O)c3nc(sc3C)C(CC(=O)NC)NC(=O)c3csc-4n3)n2)=N1 (mixture of isomers) [Compound 1] | 0.5 µg/mL | 128 µg/mL | 0.25 µg/mL | 2 µg/mL | 0.06 µg/mL | 2 µg/mL | –
2 | CNC(=O)CC1NC(=O)c2csc(n2)-c2ccc(-c3nc(C4=NC(C(=O)NCCN5CCCC5)CO4)cs3)nc2-c2csc(n2)-c2csc(n2)C(C(O)c2ccccc2)NC(=O)CNC(=O)c2nc(sc2COC)C(C(C)C)NC(=O)c2nc1sc2C (mixture of isomers) [Compound 2] | 0.5 µg/mL | 128 µg/mL | 0.25 µg/mL | 1 µg/mL | 0.06 µg/mL | 4 µg/mL | –
3 | CCN(CC)CCNC(=O)C1COC(c2csc(-c3ccc4c(n3)-c3csc(n3)-c3csc(n3)C(C(O)c3ccccc3)NC(=O)CNC(=O)c3nc(sc3COC)C(C(C)C)NC(=O)c3nc(sc3C)C(CC(=O)NC)NC(=O)c3csc-4n3)n2)=N1 (mixture of isomers) [Compound 3] | 0.5 µg/mL | 128 µg/mL | 0.5 µg/mL | 2 µg/mL | 0.06 µg/mL | 4 µg/mL | –
4 | CNC(=O)CC1NC(=O)c2csc(n2)-c2ccc(-c3nc(C4=NC(C(=O)NCCCN(C)C)CO4)cs3)nc2-c2csc(n2)-c2csc(n2)C(C(O)c2ccccc2)NC(=O)CNC(=O)c2nc(sc2COC)C(C(C)C)NC(=O)c2nc1sc2C (mixture of isomers) [Compound 5] | 0.25 µg/mL | – | 0.25 µg/mL | 1 µg/mL | 0.06 µg/mL | 2 µg/mL | 32 µg/mL
5 | CNC(=O)CC1NC(=O)c2csc(n2)-c2ccc(-c3nc(C4=NC(C(=O)NCCN(C)C)CO4)cs3)nc2-c2csc(n2)-c2csc(n2)C(C(O)c2ccccc2)NC(=O)CNC(=O)c2nc(sc2COC)C(C(C)C)NC(=O)c2nc1sc2C (mixture of isomers) [Compound 7] | 1 µg/mL | – | 1 µg/mL | 4 µg/mL | 0.13 µg/mL | 8 µg/mL | –
6 | CCN(CCN(C)C)C(=O)C1COC(c2csc(-c3ccc4c(n3)-c3csc(n3)-c3csc(n3)C(C(O)c3ccccc3)NC(=O)CNC(=O)c3nc(sc3COC)C(C(C)C)NC(=O)c3nc(sc3C)C(CC(=O)NC)NC(=O)c3csc-4n3)n2)=N1 (mixture of isomers) [Compound 8] | 1 µg/mL | – | 0.5 µg/mL | 8 µg/mL | 0.06 µg/mL | 4 µg/mL | –
7 | CCN(CC)CCN(CC)C(=O)C1COC(c2csc(-c3ccc4c(n3)-c3csc(n3)-c3csc(n3)C(C(O)c3ccccc3)NC(=O)CNC(=O)c3nc(sc3COC)C(C(C)C)NC(=O)c3nc(sc3C)C(CC(=O)NC)NC(=O)c3csc-4n3)n2)=N1 (mixture of isomers) [Compound 9] | 1 µg/mL | – | 0.5 µg/mL | 2 µg/mL | 0.06 µg/mL | 32 µg/mL | –
8 | CNC(=O)CC1NC(=O)c2csc(n2)-c2ccc(-c3nc(C4=NC(C(=O)N5CCC(N(C)C)CC5)CO4)cs3)nc2-c2csc(n2)-c2csc(n2)C(C(O)c2ccccc2)NC(=O)CNC(=O)c2nc(sc2COC)C(C(C)C)NC(=O)c2nc1sc2C (mixture of isomers) [Compound 10] | 0.5 µg/mL | – | 0.25 µg/mL | 2 µg/mL | 0.06 µg/mL | 4 µg/mL | –
9 | CNC(=O)CC1NC(=O)c2csc(n2)-c2ccc(-c3nc(C4=NC(C(=O)NCCN(C(C)C)C(C)C)CO4)cs3)nc2-c2csc(n2)-c2csc(n2)C(C(O)c2ccccc2)NC(=O)CNC(=O)c2nc(sc2COC)C(C(C)C)NC(=O)c2nc1sc2C (mixture of isomers) [Compound 11] | 4 µg/mL | – | 2 µg/mL | 8 µg/mL | 0.13 µg/mL | > 128 µg/mL | –
10 | CNC(=O)CC1NC(=O)c2csc(n2)-c2ccc(-c3nc(C4=NC(C(=O)N5CC(C)NC(C)C5)CO4)cs3)nc2-c2csc(n2)-c2csc(n2)C(C(O)c2ccccc2)NC(=O)CNC(=O)c2nc(sc2COC)C(C(C)C)NC(=O)c2nc1sc2C (mixture of isomers) [Compound 12] | 0.5 µg/mL | – | 0.5 µg/mL | 2 µg/mL | 0.06 µg/mL | 4 µg/mL | –
11 | CNC(=O)CC1NC(=O)c2csc(n2)-c2ccc(-c3nc(C4=NC(C(=O)N(C)CC(=O)N(C)CCN(C)C)CO4)cs3)nc2-c2csc(n2)-c2csc(n2)C(C(O)c2ccccc2)NC(=O)CNC(=O)c2nc(sc2COC)C(C(C)C)NC(=O)c2nc1sc2C (mixture of isomers) [Compound 14] | 0.25 µg/mL | – | 0.25 µg/mL | 2 µg/mL | 0.06 µg/mL | 4 µg/mL | –
12 | CNC(=O)CC1NC(=O)c2csc(n2)-c2ccc(-c3nc(C4=NC(C(=O)NC(C)C(=O)N(C)CCN(C)C)CO4)cs3)nc2-c2csc(n2)-c2csc(n2)C(C(O)c2ccccc2)NC(=O)CNC(=O)c2nc(sc2COC)C(C(C)C)NC(=O)c2nc1sc2C (mixture of isomers) [Compound 15] | 0.5 µg/mL | – | 0.25 µg/mL | 4 µg/mL | 0.06 µg/mL | 4 µg/mL | –
13 | CNC(=O)CC1NC(=O)c2csc(n2)-c2ccc(-c3nc(C4=NC(C(=O)N(C)CCN(C)CCN(C)C)CO4)cs3)nc2-c2csc(n2)-c2csc(n2)C(C(O)c2ccccc2)NC(=O)CNC(=O)c2nc(sc2COC)C(C(C)C)NC(=O)c2nc1sc2C (mixture of isomers) [Compound 16] | 0.25 µg/mL | – | 0.25 µg/mL | 2 µg/mL | 0.06 µg/mL | 8 µg/mL | –
14 | CNC(=O)CC1NC(=O)c2csc(n2)-c2ccc(-c3nc(C4=NC(C(=O)N5CCN(CCCN(C)C)CC5)CO4)cs3)nc2-c2csc(n2)-c2csc(n2)C(C(O)c2ccccc2)NC(=O)CNC(=O)c2nc(sc2COC)C(C(C)C)NC(=O)c2nc1sc2C (mixture of isomers) [Compound 17] | 0.5 µg/mL | – | 0.5 µg/mL | 2 µg/mL | 0.06 µg/mL | 8 µg/mL | –
15 | CNC(=O)CC1NC(=O)c2csc(n2)-c2ccc(-c3nc(C4=NC(C(=O)N5CCCC5CN(C)CCN(C)C)CO4)cs3)nc2-c2csc(n2)-c2csc(n2)C(C(O)c2ccccc2)NC(=O)CNC(=O)c2nc(sc2COC)C(C(C)C)NC(=O)c2nc1sc2C (mixture of isomers) [Compound 21] | 0.25 µg/mL | – | 0.25 µg/mL | 1 µg/mL | 0.06 µg/mL | 4 µg/mL | –
